Patent US20240239861A1, “GLUCAGON-RECEPTOR SELECTIVE POLYPEPTIDES AND METHODS OF USE THEREOF” (i2O Therapeutics, Inc., priority 2016, published 2024)
Where a SMILES comes first, the peptide text is derived from it. [ ]: non-standard residue; d: D form. Aib = CC(C)(N)C(=O)O

Experiments:
[1] = biological target: human GLP-1R (Homo sapiens, UniProt P43220); assay: Peptide-receptor mediated cAMP accumulation (LANCE Ultra cAMP) in CHO-K1 cells transfected with human GLP-1R; format: cell-based; conditions: hGLP1 pEC50 (cAMP mean (n = 3): 11 point curve starting at 1 nM, Table 3)
[2] = biological target: human GCGR (Homo sapiens, UniProt P47871); assay: Peptide-receptor mediated cAMP accumulation (LANCE Ultra cAMP) in CHO-K1 cells transfected with human GCGR; format: cell-based; conditions: Table 3
Sequence of human GCGR (P47871 26-477): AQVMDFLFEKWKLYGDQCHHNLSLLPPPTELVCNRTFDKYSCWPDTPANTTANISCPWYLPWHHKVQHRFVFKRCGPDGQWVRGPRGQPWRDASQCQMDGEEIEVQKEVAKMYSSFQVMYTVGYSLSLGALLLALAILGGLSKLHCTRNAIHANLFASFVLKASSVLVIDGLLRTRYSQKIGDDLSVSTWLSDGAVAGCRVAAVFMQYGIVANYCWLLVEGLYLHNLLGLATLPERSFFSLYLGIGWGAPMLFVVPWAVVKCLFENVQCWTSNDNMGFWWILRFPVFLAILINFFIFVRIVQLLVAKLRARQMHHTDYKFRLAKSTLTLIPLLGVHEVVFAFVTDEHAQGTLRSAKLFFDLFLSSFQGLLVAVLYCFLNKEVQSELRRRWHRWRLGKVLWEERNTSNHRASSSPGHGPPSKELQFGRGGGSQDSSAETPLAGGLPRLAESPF

Sequence of human GLP-1R (P43220 24-463): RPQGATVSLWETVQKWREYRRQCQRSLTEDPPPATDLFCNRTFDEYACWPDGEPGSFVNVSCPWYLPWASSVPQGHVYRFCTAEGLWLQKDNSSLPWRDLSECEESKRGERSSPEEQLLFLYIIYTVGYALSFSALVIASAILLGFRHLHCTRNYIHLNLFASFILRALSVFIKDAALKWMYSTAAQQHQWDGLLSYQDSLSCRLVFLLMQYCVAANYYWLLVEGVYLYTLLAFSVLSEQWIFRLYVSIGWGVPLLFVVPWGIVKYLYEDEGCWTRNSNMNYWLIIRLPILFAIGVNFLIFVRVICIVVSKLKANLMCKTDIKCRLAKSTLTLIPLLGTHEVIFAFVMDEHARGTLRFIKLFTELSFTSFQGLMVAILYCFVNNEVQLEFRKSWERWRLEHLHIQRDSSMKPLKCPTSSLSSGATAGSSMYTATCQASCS

| SMILES | EC50 [1] [pM] | EC50 [2] [pM] |
| --- | --- | --- |
| CC(C)C[C@H](NC(=O)[C@H](Cc1ccc(O)cc1)NC(=O)[C@H](CCCCN)NC(=O)[C@H](CO)NC(=O)[C@H](Cc1ccc(O)cc1)NC(=O)[C@H](CC(=O)O)NC(=O)[C@H](CO)NC(=O)[C@@H](NC(=O)[C@H](Cc1ccccc1)NC(=O)[C@@H](NC(=O)CNC(=O)[C@H](Cc1c[nH]cn1)NC(=O)[C@H](CO)NC(=O)[C@@H](N)Cc1ccc(O)cc1)[C@@H](C)O)[C@@H](C)O)C(=O)N[C@@H](CC(=O)O)C(=O)NC(C)(C)C(=O)N[C@@H](CCCCN)C(=O)N[C@@H](CCCNC(=N)N)C(=O)N[C@@H](C)C(=O)N[C@@H](CCC(N)=O)C(=O)N[C@@H](CCC(=O)O)C(=O)N[C@@H](Cc1ccccc1)C(=O)N[C@H](C(=O)NC(C)(C)C(=O)N[C@@H](Cc1c[nH]c2ccccc12)C(=O)N[C@@H](CC(C)C)C(=O)N[C@@H](CCC(=O)O)C(=O)N[C@@H](CC(=O)O)C(=O)N[C@@H](CCC(=O)O)C(=O)N[C@@H](CCC(=O)O)C(=O)N1CCC[C@H]1C(=O)N[C@@H](CO)C(=O)N[C@@H](CO)C(=O)NCC(=O)N[C@@H](C)C(=O)N1CCC[C@H]1C(=O)N1CCC[C@H]1C(=O)N1CCC[C@H]1C(=O)N[C@@H](CO)C(=O)O)C(C)C [Compound A10] (H-YSHGTFTSDYSKYLD[Aib]KRAQEFV[Aib]WLEDEEPSSGAPPPS-OH; N-terminus assumed) | > 1000 | 5.01 |
| CC(C)C[C@H](NC(=O)[C@H](Cc1ccc(O)cc1)NC(=O)[C@H](CCCCN)NC(=O)[C@H](CO)NC(=O)[C@H](Cc1ccc(O)cc1)NC(=O)[C@H](CC(=O)O)NC(=O)[C@H](CO)NC(=O)[C@@H](NC(=O)[C@H](Cc1ccccc1)NC(=O)[C@@H](NC(=O)CNC(=O)[C@H](Cc1c[nH]cn1)NC(=O)[C@H](CO)NC(=O)[C@@H](N)Cc1ccc(O)cc1)[C@@H](C)O)[C@@H](C)O)C(=O)N[C@@H](CC(=O)O)C(=O)NC(C)(C)C(=O)N[C@@H](CCCCN)C(=O)N[C@@H](CCCNC(=N)N)C(=O)N[C@@H](C)C(=O)N[C@@H](CCC(N)=O)C(=O)N[C@@H](CCC(=O)O)C(=O)N[C@@H](Cc1ccccc1)C(=O)N[C@H](C(=O)NC(C)(C)C(=O)N[C@@H](Cc1c[nH]c2ccccc12)C(=O)N[C@@H](CC(C)C)C(=O)N[C@@H](CCC(=O)O)C(=O)N[C@@H](CC(=O)O)C(=O)N[C@@H](CCC(=O)O)C(=O)N[C@@H](CCC(=O)O)C(=O)N[C@@H](CCC(=O)O)C(=O)N1CCC[C@H]1C(=O)N[C@@H](CO)C(=O)N[C@@H](CO)C(=O)NCC(=O)N[C@@H](C)C(=O)N1CCC[C@H]1C(=O)N1CCC[C@H]1C(=O)N1CCC[C@H]1C(=O)N[C@@H](CO)C(=O)O)C(C)C [Compound A11] (H-YSHGTFTSDYSKYLD[Aib]KRAQEFV[Aib]WLEDEEEPSSGAPPPS-OH; N-terminus assumed) | > 1000 | 6.31 |
| CC(C)C[C@H](NC(=O)[C@H](Cc1ccc(O)cc1)NC(=O)[C@H](CCCCN)NC(=O)[C@H](CO)NC(=O)[C@H](Cc1ccc(O)cc1)NC(=O)[C@H](CC(=O)O)NC(=O)[C@H](CO)NC(=O)[C@@H](NC(=O)[C@H](Cc1ccccc1)NC(=O)[C@@H](NC(=O)CNC(=O)[C@H](Cc1c[nH]cn1)NC(=O)[C@H](CO)NC(=O)[C@@H](N)Cc1ccc(O)cc1)[C@@H](C)O)[C@@H](C)O)C(=O)N[C@@H](CC(=O)O)C(=O)NC(C)(C)C(=O)N[C@@H](CCCCN)C(=O)N[C@@H](CCCNC(=N)N)C(=O)N[C@@H](C)C(=O)N[C@@H](CCC(N)=O)C(=O)N[C@@H](CCC(=O)O)C(=O)N[C@@H](Cc1ccccc1)C(=O)N[C@H](C(=O)NC(C)(C)C(=O)N[C@@H](Cc1c[nH]c2ccccc12)C(=O)N[C@@H](CC(C)C)C(=O)N[C@@H](CCC(=O)O)C(=O)N[C@@H](CC(=O)O)C(=O)N[C@@H](CCC(=O)O)C(=O)N[C@@H](CO)C(=O)N[C@@H](CO)C(=O)NCC(=O)N[C@@H](C)C(=O)N1CCC[C@H]1C(=O)N1CCC[C@H]1C(=O)N1CCC[C@H]1C(=O)N[C@@H](CO)C(=O)O)C(C)C [Compound A14] (H-YSHGTFTSDYSKYLD[Aib]KRAQEFV[Aib]WLEDESSGAPPPS-OH; N-terminus assumed) | > 1000 | 1 |
| CC(C)C[C@H](NC(=O)[C@H](Cc1ccc(O)cc1)NC(=O)[C@H](CCCCN)NC(=O)[C@H](CO)NC(=O)[C@H](Cc1ccc(O)cc1)NC(=O)[C@H](CC(=O)O)NC(=O)[C@H](CO)NC(=O)[C@@H](NC(=O)[C@H](Cc1ccccc1)NC(=O)[C@@H](NC(=O)CNC(=O)[C@H](Cc1c[nH]cn1)NC(=O)[C@H](CO)NC(=O)[C@@H](N)Cc1ccc(O)cc1)[C@@H](C)O)[C@@H](C)O)C(=O)N[C@@H](CC(=O)O)C(=O)NC(C)(C)C(=O)N[C@@H](CO)C(=O)N[C@@H](CCCNC(=N)N)C(=O)N[C@@H](C)C(=O)N[C@@H](CCC(N)=O)C(=O)N[C@@H](CCC(=O)O)C(=O)N[C@@H](Cc1ccccc1)C(=O)N[C@H](C(=O)NC(C)(C)C(=O)N[C@@H](Cc1c[nH]c2ccccc12)C(=O)N[C@@H](CC(C)C)C(=O)N[C@@H](CCC(=O)O)C(=O)N[C@@H](CC(=O)O)C(=O)N[C@@H](CCC(=O)O)C(=O)N1CCC[C@H]1C(=O)N[C@@H](CO)C(=O)N[C@@H](CO)C(=O)NCC(=O)N[C@@H](C)C(=O)N1CCC[C@H]1C(=O)N1CCC[C@H]1C(=O)N1CCC[C@H]1C(=O)N[C@@H](CO)C(=O)O)C(C)C [Compound A15] (H-YSHGTFTSDYSKYLD[Aib]SRAQEFV[Aib]WLEDEPSSGAPPPS-OH; N-terminus assumed) | > 1000 | 3.98 |
| CC(C)C[C@H](NC(=O)[C@H](Cc1ccc(O)cc1)NC(=O)[C@H](CCCCN)NC(=O)[C@H](CO)NC(=O)[C@H](Cc1ccc(O)cc1)NC(=O)[C@H](CC(=O)O)NC(=O)[C@H](CO)NC(=O)[C@@H](NC(=O)[C@H](Cc1ccccc1)NC(=O)[C@@H](NC(=O)CNC(=O)[C@H](Cc1c[nH]cn1)NC(=O)[C@H](CO)NC(=O)[C@@H](N)Cc1ccc(O)cc1)[C@@H](C)O)[C@@H](C)O)C(=O)N[C@@H](CC(=O)O)C(=O)NC(C)(C)C(=O)N[C@H](C(=O)N[C@@H](CCCNC(=N)N)C(=O)N[C@@H](C)C(=O)N[C@@H](CCC(N)=O)C(=O)N[C@@H](CCC(=O)O)C(=O)N[C@@H](Cc1ccccc1)C(=O)N[C@H](C(=O)NC(C)(C)C(=O)N[C@@H](Cc1c[nH]c2ccccc12)C(=O)N[C@@H](CC(C)C)C(=O)N[C@@H](CCC(=O)O)C(=O)N[C@@H](CC(=O)O)C(=O)N[C@@H](CCC(=O)O)C(=O)N1CCC[C@H]1C(=O)N[C@@H](CO)C(=O)N[C@@H](CO)C(=O)NCC(=O)N[C@@H](C)C(=O)N1CCC[C@H]1C(=O)N1CCC[C@H]1C(=O)N1CCC[C@H]1C(=O)N[C@@H](CO)C(=O)O)C(C)C)[C@@H](C)O [Compound A16] (H-YSHGTFTSDYSKYLD[Aib]TRAQEFV[Aib]WLEDEPSSGAPPPS-OH; N-terminus assumed) | > 1000 | 1.26 |
